Source: patent US8389247B2, “Physiogenomic method for predicting diabetes and metabolic syndromes induced by psychotropic drugs” (priority 2006, dated 2013)

Assay: Outcome variables of patients on each psychotropic drug broken down by demographic factors (Covariates tables)
Type: in vivo, human
Excerpt: Various SNPs associated with, for example, the observation of various parameters of metabolic syndromes in patients on psychotropic drugs were screened. The endpoints analyzed were the blood levels of LDL, HDL, and glucose; blood pressure; body mass index; waist circumference; and metabolic syndromes index. The physiogenomic model was developed using the following procedure: 1) Establish a covariate model using only the demographic and clinical variables, 2) Screen for associated genetic markers by testing each SNP against the unexplained residual of the covariate model, and 3) Establish a revised model incorporating the significant associations from the SNP screen.

## OCCOCCN1CCN(C2=Nc3ccccc3Sc3ccccc32)CC1 [Quetiapine, quetiapine]
Age 20-30
  LDL (LDL cholesterol level): 91.35
Age 30-40
  LDL (LDL cholesterol level): 102.92
Age 40-50
  LDL (LDL cholesterol level): 94.39
Age 50-60
  LDL (LDL cholesterol level): 97.33
Age 60-70
  LDL (LDL cholesterol level): 88.00
Age <20
  LDL (LDL cholesterol level): 87.40
All patients on the drug
  LDL (LDL cholesterol level): 96.71
Gender female
  LDL (LDL cholesterol level): 92.89
Gender male
  LDL (LDL cholesterol level): 99.19
Heritage AA
  LDL (LDL cholesterol level): 94.38
Heritage Cauc.
  LDL (LDL cholesterol level): 96.93
human, in vivo
  BM: 87.05
  BMI: 29.44
  Glucose: 92.08
  HDL: 49.79
  Log (TG): 5.263
  MSI: 0.2625
  TC: 192.33
  dBP: 75.04
  sBP: 120.07
Patients on the named drug
  LDL: 96.71
